# Results as given in PubChem BioAssay AID1963985 (Molecular Pharmacology Branch, DTP, NCI, 2024).
# pIC50: −log10 of the molar value.
# Tested on: 252836-082-R-J2-PDC tumor spheroids, viability
# Experiment: Anticancer human tumor 252836-082-R-J2-PDC patient-derived head and neck squamous cell carcinoma cell line growth inhibition [PI3K]
# Conditions: spheroids with HUVEC and MSC; for pIC50: curve of first compound; for viability, T/C: stronger effect = lower value
# Excerpt: Combinatorial screen of targeted agents with the PI3K inhibitors inavolisib, alpelisib, duvelisib, and copanlisib in multi-cell type tumor spheroids
# A high-throughput screen of multi-cell type tumor spheroids was designed to identify active combinations of targeted small molecules and PI3K pathway inhibitors. Complex spheroids include a stromal component modeled by human endothelial cells (HUVEC) and fibroblasts modeled by human mesenchymal stem cells (MSCs). The concentration ranges selected for each drug and investigational agent were based upon clinically achievable concentrations if the clinical Cmax of the agent was known.
# Compounds. The drugs and investigational agents: inavolisib (NSC800729), alpelisib (NSC765974), duvelisib (NSC772469), copanlisib (NSC816437), ipatasertib (NSC767898), afuresertib (NSC778305), talazoparib (NSC767125), sapanisertib (NSC764658), selumetinib (NSC741078), tovorafenib (DAY101, NSC766906), vemurafenib (NSC761431), ravoxertinib (NSC781343), sotorasib (NSC818433), MRTX1133 (NSC 836407), abemaciclib (NSC 768073), palbociclib (NSC758247), venetoclax (NSC 766270), SY5609 (NSC837396), enzalutamide (NSC755605), and darolutamide (NSC825331), were obtained from the National Cancer Institute (NCI) Developmental Therapeutics Program Chemical Repository. The FDA-approved anticancer drug set is available from the NCI Developmental Therapeutics Program. […] The stock solutions were prepared in dimethyl sulfoxide (DMSO, Sigma-Aldrich, St. Louis, MO, cat. D2650) at 800-fold the tested concentration and stored at -70 degrees C prior to their use. All drugs and investigational agents were tested over a range starting from a high concentration at or near the clinical Cmax and decreasing in half-log increments. If the clinical Cmax for an agent had not been determined, the highest concentration tested was 10 microM.
# Cell Culture. All cells were maintained in an incubator at 37 degrees C and 5% CO2 with 95% humidity. The PDC lines were cultured according to standard operating procedures established by the NCI PDMR (https://pdmr.cancer.gov/sops/default.htm). All PDCs were thawed and cultured in Matrigel-coated flasks prepared with a working solution of 1X Ham's F-12 nutrient mix, without supplementation (Invitrogen, Waltham, MA, cat. 11765054), 100 U/mL penicillin-streptomycin (Invitrogen, cat. 15140122), and 2.5% Matrigel (Corning Inc., Corning, NY, cat. 354248) for the first three passages. The 354836-022-R-J1-PDC, 475296-252-R-J1-PDC, and 997726-040-R-J2-PDC lines were cultured in 6A media, which includes advanced DMEM/F-12 (Thermo Fisher Scientific, cat. 12634028), 10 mM HEPES (Thermo Fisher Scientific, cat. 15630080), 1X GlutaMAX supplement (Thermo Fisher Scientific, cat. 35050061), 0.1 mg/mL primocin (InvivoGen, San Diego, CA, cat. ant-pm-2), 10% defined fetal bovine serum, heat inactivated (HyClone Laboratories Inc., Logan, UT, cat. SH30070.03HI), 50% L-WRN conditioned media (ATCC, cat. CRL-3276), 1.25 mM N-Acetyl-L-cysteine (Sigma-Aldrich, cat. A9165), 10 mM nicotinamide (Sigma-Aldrich, cat. N0636), 1X B-27 supplement (Thermo Fisher Scientific, cat. 17504044), 1X N-2 supplement (Thermo Fisher Scientific, cat. 17502048), and 10 microM Y-27632 dihydrochloride (Tocris Bioscience, Bristol, United Kingdom, cat. 1254). The 624824-186-R-J2-PDC line was cultured in 6C/Colon 1B media, which includes all 6A media components plus 50 ng/mL human EGF recombinant protein (Thermo Fisher Scientific, cat. PHG0311). […]
# 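Also: spheroids exposed to agents for seven days before readout.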
# 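For viability, T/C in this document: percent of vehicle DMSO control viability so 100% = untreated growth.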
compound,measurement,setting,value
Cn1nccc1Nc1nccc(-c2ccn(C(CO)c3ccc(Cl)c(F)c3)c(=O)c2)n1 (configuration not stated) + CC(Nc1ncnc2nc[nH]c12)c1cc2cccc(Cl)c2c(=O)n1-c1ccccc1,pIC50,second compound 0.0316 µM,< 5.00
same,pIC50,second compound 0.1 µM,< 5.00
same,pIC50,second compound 0.316 µM,< 5.00
same,pIC50,second compound 1 µM,< 5.00
same,pIC50,second compound 3.16 µM,< 5.00
same,pIC50,second compound 10 µM,5.18
same,"viability, T/C","second compound 0.0316 µM, first compound 0.0316 µM",83.3%
same,"viability, T/C","second compound 0.0316 µM, first compound 0.1 µM",99.5%
same,"viability, T/C","second compound 0.0316 µM, first compound 0.316 µM",91.9%
same,"viability, T/C","second compound 0.0316 µM, first compound 1 µM",99.6%
same,"viability, T/C","second compound 0.0316 µM, first compound 3.16 µM",93.3%
same,"viability, T/C","second compound 0.0316 µM, first compound 10 µM",66.2%
same,"viability, T/C","second compound 0.1 µM, first compound 0.0316 µM",100%
same,"viability, T/C","second compound 0.1 µM, first compound 0.1 µM",94.8%
same,"viability, T/C","second compound 0.1 µM, first compound 0.316 µM",91.3%
same,"viability, T/C","second compound 0.1 µM, first compound 1 µM",95.9%
same,"viability, T/C","second compound 0.1 µM, first compound 3.16 µM",95.9%
same,"viability, T/C","second compound 0.1 µM, first compound 10 µM",67.2%
same,"viability, T/C","second compound 0.316 µM, first compound 0.0316 µM",97.2%
same,"viability, T/C","second compound 0.316 µM, first compound 0.1 µM",94.5%
same,"viability, T/C","second compound 0.316 µM, first compound 0.316 µM",93.7%
same,"viability, T/C","second compound 0.316 µM, first compound 1 µM",81.1%
same,"viability, T/C","second compound 0.316 µM, first compound 3.16 µM",91.9%
same,"viability, T/C","second compound 0.316 µM, first compound 10 µM",76%
same,"viability, T/C","second compound 1 µM, first compound 0.0316 µM",75.4%
same,"viability, T/C","second compound 1 µM, first compound 0.1 µM",82.3%
same,"viability, T/C","second compound 1 µM, first compound 0.316 µM",91.3%
same,"viability, T/C","second compound 1 µM, first compound 1 µM",92.6%
same,"viability, T/C","second compound 1 µM, first compound 3.16 µM",81.5%
same,"viability, T/C","second compound 1 µM, first compound 10 µM",56.5%
same,"viability, T/C","second compound 3.16 µM, first compound 0.0316 µM",72.4%
same,"viability, T/C","second compound 3.16 µM, first compound 0.1 µM",86.2%
same,"viability, T/C","second compound 3.16 µM, first compound 0.316 µM",77.5%
same,"viability, T/C","second compound 3.16 µM, first compound 1 µM",80.5%
same,"viability, T/C","second compound 3.16 µM, first compound 3.16 µM",80.9%
same,"viability, T/C","second compound 3.16 µM, first compound 10 µM",52.9%
same,"viability, T/C","second compound 10 µM, first compound 0.0316 µM",62%
same,"viability, T/C","second compound 10 µM, first compound 0.1 µM",64.8%
same,"viability, T/C","second compound 10 µM, first compound 0.316 µM",78.9%
same,"viability, T/C","second compound 10 µM, first compound 1 µM",73.4%
same,"viability, T/C","second compound 10 µM, first compound 3.16 µM",62.4%
same,"viability, T/C","second compound 10 µM, first compound 10 µM",41.8%
